Patent publication US20110263454A1, “Methods of Identifying Functional Characteristics of Promoters, Transcription Modifying Proteins and Transcription Modulating Agents” (Salk Institute for Biological Studies, priority 2008, published 2011)

What was measured:
[1] = test system: hIRF7 promoter; assay: NHR-promoter luciferase screen, hIRF7 promoter; type: cell-based, human; details: for Normalized Luc. act., normalized to control / Luc. act., normalized to lacZ: IRF7 promoter reporter; for Normalized Luc. act., normalized to control: HR without or with its ligand, relative to control; for Luc. act., normalized to lacZ: hormone receptor (HR) without or with its ligand; for hIRF7 promoter reporter activity: transcription factor +/- ligand, control = 1.00
Procedure: (§1) The use, feasibility, and reproducibility of the functional NHR-promoter screen in a 48-well format have been tested validated. Briefly, there were co-expressed 50 ng of each NHR/NHR homodimer or NHR/RXR heterodimer with 100 ng promoter/luciferase construct and 50 ng of LacZ (as a control for transfection efficiency) in CV-1 cells using Fugene HD (Roche) as a transfection reagent (alternatively or additionally, a CMV-YFP construct can be used as a transfection control). Each of the nuclear hormone receptors that were used in these experiments was cloned into a pcDNA3.1 vector and comprised a C-terminally linked V5H6 tag. Twenty-four hours after transfection, appropriate ligands were added, where applicable, (see Table 5 for various ligands and concentrations and after 48 hrs, samples were assayed for luciferase and LacZ activity. To measure for luciferase activity 15 ul of sample was added to 30 ul of luciferase buffer (20 mM tricine, 1.07 mM MgCarbonate, 2.67 mM MgSulfate, 0.1 mM Naz-EDTA, 5 mM DTT, 5 mM ATP, 0.15 mg/ml CoA, 0.5 mM Luciferin), mixed briefly, and run in a Perkin Elmer Victor 5 luminometer. Thus, the functional NHR-promoter screen was used to observe the transcriptional activity of 29 promoters from various physiological pathways including inflammation, lipid and sugar metabolism, cholesterol transport, xenobiotic metabolism, and circadian rhythm.
(§2) The promoters that facilitate transcription of the indicated gene products that were tested using the protocols described herein are listed in the first row of the table. The nuclear hormone receptors and, where applicable, ligands that were assayed for their transcriptional effects on the promoters are listed in the first column of the table. The data represent the luciferase activity of each sample normalized to both the lacZ activity of that sample and to a control, e.g., no NHR or ligand, as customary in the art. As described previously, these normalizations allow the transcriptional activity of each reporter cell to be compared to other samples.
(§3) Tables 7-40 show the transcriptional effects of the hormone receptors, and, where applicable, ligands (orphan receptors are screened without ligand), on each individual promoter. […] The control data of each table are shown in their last rows.

[2] = test system: mGhrelin promoter; assay: NHR-promoter luciferase screen, mGhrelin promoter; type: cell-based, mouse; details: for Luc. act., normalized to lacZ / Normalized Luc. act., normalized to control: Table 8, mGhrelin; for Results of assays of transcription factor (+/- ligand) with mGhrelin: Table 6d, luciferase activity relative to control (control = 1.00); for luciferase/LacZ, mGhrelin (selected results): mGhrelin promoter-luciferase, NHR +/- ligand, control = 1.0
Procedure: as §1, §2, §3

[3] = test system: Bmal1 promoter; assay: NHR-promoter luciferase screen, Bmal1 promoter; type: cell-based, mouse; details: for Luc. act., normalized to lacZ / Normalized Luc. act., normalized to control: Bmal1 promoter, HR component without or with ligand; for mBmal1 promoter reporter activity: transcription factor +/- ligand, control = 1.00
Procedure: as §1, §2, §3

[4] = test system: mAgrp promoter; assay: NHR-promoter luciferase screen, mAgrp promoter; type: cell-based, mouse; details: for Results of assays of transcription factor (+/- ligand) with mAgrp: Table 6d, luciferase activity relative to control (control = 1.00); for luciferase/LacZ, mAgrp (selected results): mAgrp promoter-luciferase, NHR +/- ligand, control = 1.0; for Luc. act., normalized to lacZ / Normalized Luc. act., normalized to control: mAgrp promoter, HR component with or without ligand; for Normalized Luc. act., normalized to control: relative to control
Procedure: as §1, §2, §3

[5] = test system: mUCP1 promoter; assay: NHR-promoter luciferase screen, mUCP1 promoter; type: cell-based, mouse; details: for Luc. act., normalized to lacZ / Normalized Luc. act., normalized to control: mUCP1 promoter reporter, co-transfected HR, with or without its ligand; for Normalized Luc. act., normalized to control: relative to control; for luciferase activity normalized to lacZ activity and to a control, mUCP!: mUCP! promoter-luciferase, CV-1 cells, NHR +/- ligand, control = 1.00
Procedure: as §1, §2, §3

Row | Substance | Normalized Luc. act., normalized to control [1] | Luc. act., normalized to lacZ [1] | hIRF7 promoter reporter activity [1] | Luc. act., normalized to lacZ [2] | Normalized Luc. act., normalized to control [2] | Results of assays of transcription factor (+/- ligand) with mGhrelin [2] | luciferase/LacZ, mGhrelin (selected results) [2] | Luc. act., normalized to lacZ [3] | Normalized Luc. act., normalized to control [3] | mBmal1 promoter reporter activity [3] | Results of assays of transcription factor (+/- ligand) with mAgrp [4] | luciferase/LacZ, mAgrp (selected results) [4] | Luc. act., normalized to lacZ [4] | Normalized Luc. act., normalized to control [4] | Luc. act., normalized to lacZ [5] | Normalized Luc. act., normalized to control [5] | luciferase activity normalized to lacZ activity and to a control, mUCP! [5]
1 | GR: Glucocorticoid Receptor (NR3C1), cDNA driver | 0.7 | 18.9 | 0.72 | 14.3 | 0.3 | 0.27 | 0.3 | 13.2 | 0.8 | 0.84 | 0.55 | 0.6 | 22.0 | 0.6 | 1.9 | 0.4 | 0.42
2 | PNR: Photoreceptor-specific Nuclear Receptor (NR2E3), cDNA driver | 1.0 | 27.5 | 1.04 | 32.4 | 0.6 | 0.62 | – | 7.6 | 0.5 | 0.49 | 0.76 | – | 30.1 | 0.8 | 1.7 | 0.4 | 0.37
3 | AR: Androsterone Receptor (NR3C4), cDNA driver | 1.1 | 29.9 | 1.14 | 39.2 | 0.8 | 0.75 | – | 13.5 | 0.9 | 0.86 | 1.15 | – | 45.8 | 1.2 | 3.3 | 0.7 | 0.74
4 | VDR: Vitamin D Receptor (NR1I1), cDNA driver | 1.1 | 30.2 | 1.15 | 76.6 | 1.5 | 1.47 | – | 22.0 | 1.4 | 1.40 | 1.14 | – | 45.3 | 1.1 | 2.8 | 0.6 | 0.63
5 | RXRa: Retinoic X Receptor α (NR2B1), cDNA driver | 1.0 | 27.5 | 1.04 | 57.4 | 1.1 | 1.10 | – | 11.8 | 0.8 | 0.75 | 1.17 | – | 46.4 | 1.2 | 2.9 | 0.7 | 0.66
6 | NR4a1: NR4a1 (NR4A1; NUR77), nuclear hormone receptor cDNA driver | 2.3 | 61.0 | 2.31 | 54.5 | 1.0 | 1.04 | 1.0 | 15.7 | 1.0 | 1.00 | 1.17 | 1.2 | 46.3 | 1.2 | 7.6 | 1.7 | 1.70
